Reference: patent US20230190717A1, “P38 GAMMA INHIBITORS AND METHOD OF USE THEREOF” (City of Hope, priority 2017, published 2023)

What was measured:
Type in all cases: cell-based, human
MDA-MB-435 = assay: NCI-60 cytotoxicity, MDA-MB-435; conditions: MDA-MB-435 (Melanoma), 72 h
Experimental: (§1) Briefly, human NCI-60 cancer cell lines were counted with a Vi-CELL Cell Viability Analyzer (Beckman Coulter), resuspended in RPMI-1640 medium containing 10% FBS and 1% penicillin/streptomycin and dispensed in wells of 96-well microplates (3000 cells per well for solid tumor and 5000 per well for blood tumor cells) using an epMotion 5075 liquid handler (Eppendorf) under a sterile condition, followed by incubation overnight at 37° C. in 5% (v/v) CO2. Cells were exposed to compounds in a dose-dependent manner for 72 h. An MTS dye (20 uL per well) was added to each well. Cell viability was determined by tetrazolium conversion to its […] dye. […] Each experiment was performed in duplicate. […] H9 cells are more sensitive to drugs, therefore instead of 72 hours, we choose 48 hour the incubation time for H9 cells.
(§2) IC50 values were determined using […] software (Biosoft).

NCI/ADR-RES = assay: NCI-60 cytotoxicity, NCI/ADR-RES; conditions: NCI/ADR-RES (Ovarian), 72 h
Experimental: as §1, §2

NCI-H322M = assay: NCI-60 cytotoxicity, NCI-H322M; conditions: NCI-H322M (Lung), 72 h
Experimental: as §1, §2

SK-MEL-28 = assay: NCI-60 cytotoxicity, SK-MEL-28; conditions: SK-MEL-28 (Melanoma), 72 h
Experimental: as §1, §2

MCF7 = assay: NCI-60 cytotoxicity, MCF7; conditions: MCF7 (Breast), 72 h
Experimental: as §1, §2

RPMI-8226 = assay: NCI-60 cytotoxicity, RPMI-8226; conditions: RPMI-8226 (MM), 72 h
Experimental: as §1, §2

PC-3 = assay: NCI-60 cytotoxicity, PC-3; conditions: PC-3 (Prostate), 72 h
Experimental: as §1, §2

HL60 = assay: NCI-60 cytotoxicity, HL60; conditions: HL60 (AML), 72 h
Experimental: as §1, §2

UACC-62 = assay: NCI-60 cytotoxicity, UACC-62; conditions: UACC-62 (Melanoma), 72 h
Experimental: as §1, §2

MOLT-4 = assay: NCI-60 cytotoxicity, MOLT-4; conditions: MOLT-4 (ALL), 72 h
Experimental: as §1, §2

SK-MEL-2 = assay: NCI-60 cytotoxicity, SK-MEL-2; conditions: SK-MEL-2 (Melanoma), 72 h
Experimental: as §1, §2

UACC257 = assay: NCI-60 cytotoxicity, UACC257; conditions: UACC257 (Melanoma), 72 h
Experimental: as §1, §2

OVCAR-8 = assay: NCI-60 cytotoxicity, OVCAR-8; conditions: OVCAR-8 (Ovarian), 72 h
Experimental: as §1, §2

NCI-H460 = assay: NCI-60 cytotoxicity, NCI-H460; conditions: NCI-H460 (Lung), 72 h
Experimental: as §1, §2

TK-10 = assay: NCI-60 cytotoxicity, TK-10; conditions: TK-10 (Renal), 72 h
Experimental: as §1, §2

OVCAR-4 = assay: NCI-60 cytotoxicity, OVCAR-4; conditions: OVCAR-4 (Ovarian), 72 h
Experimental: as §1, §2

SF-295 = assay: NCI-60 cytotoxicity, SF-295; conditions: SF-295 (CNS), 72 h
Experimental: as §1, §2

HCT-15 = assay: NCI-60 cytotoxicity, HCT-15; conditions: HCT-15 (Colon), 72 h
Experimental: as §1, §2

HCC-2998 = assay: NCI-60 cytotoxicity, HCC-2998; conditions: HCC-2998 (Colon), 72 h
Experimental: as §1, §2

MALME-3M = assay: NCI-60 cytotoxicity, MALME-3M; conditions: MALME-3M (Melanoma), 72 h
Experimental: as §1, §2

DU-145 = assay: NCI-60 cytotoxicity, DU-145; conditions: DU-145 (Prostate), 72 h
Experimental: as §1, §2

SR = assay: NCI-60 cytotoxicity, SR; conditions: SR (Leukemia), 72 h
Experimental: as §1, §2

SN12C = assay: NCI-60 cytotoxicity, SN12C; conditions: SN12C (Renal), 72 h
Experimental: as §1, §2

M14 = assay: NCI-60 cytotoxicity, M14; conditions: M14 (Melanoma), 72 h
Experimental: as §1, §2

RXF 393 = assay: NCI-60 cytotoxicity, RXF 393; conditions: RXF 393 (Renal), 72 h
Experimental: as §1, §2

ACHN = assay: NCI-60 cytotoxicity, ACHN; conditions: ACHN (Renal), 72 h
Experimental: as §1, §2

NCI-H226 = assay: NCI-60 cytotoxicity, NCI-H226; conditions: NCI-H226 (Lung), 72 h
Experimental: Cells were exposed to compounds in a dose-dependent manner for 72 h. An MTS dye (20 uL per well) was added to each well. Cell viability was determined by tetrazolium conversion to its format an dye. Absorbance was monitored at 490 nm using an automated BMG PHERAstar plate reader (BMG Labtech). Each experiment was performed in duplicate. IC50 values were determined using CalcuSyn software (Biosoft).
Absorbance was monitored at 490 nm using an automated BMG PHERAstar plate reader (BMG Labtech). […] All experiments are repeated in three independent experiments and data represented are the average of triplicate experiments.

`Cc1ccc([N+](=O)[O-])cc1S(=O)(=O)N(C)/N=C/c1cnc2ccc(Br)cn12` [Compound 1] was tested, and the IC50 (MDA-MB-435; Homo sapiens) was > 10000 nM, the IC50 (NCI/ADR-RES; Homo sapiens) was 24 nM and the IC50 (NCI-H322M; Homo sapiens) was 1500 nM. The IC50 (SK-MEL-28; Homo sapiens) was 1690 nM, the IC50 (MCF7; Homo sapiens) was 238 nM and the IC50 (RPMI-8226; Homo sapiens) was 77 nM. The IC50 (PC-3; Homo sapiens) was 20 nM, the IC50 (HL60; Homo sapiens, HL-60) was 5 nM and the IC50 (UACC-62; Homo sapiens) was 362 nM. The IC50 (MOLT-4; Homo sapiens) was 527 nM, the IC50 (SK-MEL-2; Homo sapiens) was 317 nM and the IC50 (UACC257; Homo sapiens, UACC-257) was 2320 nM. The IC50 (OVCAR-8; Homo sapiens) was 59 nM, the IC50 (NCI-H460; Homo sapiens) was 10 nM and the IC50 (TK-10; Homo sapiens) was 805 nM. The IC50 (OVCAR-4; Homo sapiens) was 403 nM, the IC50 (SF-295; Homo sapiens) was 141 nM and the IC50 (HCT-15; Homo sapiens) was 8 nM. For the same compound, the IC50 (HCC-2998; Homo sapiens) was > 10000 nM, the IC50 (MALME-3M; Homo sapiens) was 116 nM and the IC50 (DU-145; Homo sapiens) was 1 nM. The IC50 (SR; Homo sapiens) was < 1 nM, the IC50 (SN12C; Homo sapiens) was 468 nM and the IC50 (M14; Homo sapiens) was 195 nM. For the same compound, the IC50 (RXF 393; Homo sapiens) was 80 nM and the IC50 (ACHN; Homo sapiens) was 92 nM.
`O=C1NCCc2[nH]c(-c3ccncc3)cc21` [Compound A11] was tested, and the IC50 (MDA-MB-435) was > 10000 nM, the IC50 (NCI/ADR-RES) was 1440 nM and the IC50 (NCI-H322M) was > 10000 nM. The IC50 (SK-MEL-28) was 9600 nM, the IC50 (MCF7) was 3770 nM and the IC50 (RPMI-8226) was > 10000 nM. For the same compound, the IC50 (PC-3) was 9180 nM, the IC50 (HL60) was 247 nM and the IC50 (UACC-62) was 6120 nM. The IC50 (MOLT-4) was 6980 nM, the IC50 (SK-MEL-2) was > 10000 nM and the IC50 (UACC257) was > 10000 nM. The IC50 (OVCAR-8) was 3600 nM, the IC50 (TK-10) was > 10000 nM and the IC50 (OVCAR-4) was > 10000 nM. For the same compound, the IC50 (SF-295) was 7640 nM, the IC50 (HCT-15) was 2540 nM and the IC50 (HCC-2998) was > 10000 nM. For the same compound, the IC50 (MALME-3M) was 3050 nM, the IC50 (NCI-H226) was > 10000 nM and the IC50 (DU-145) was 2260 nM. For the same compound, the IC50 (SR) was 286 nM, the IC50 (M14) was 3330 nM and the IC50 (RXF 393) was 3470 nM. For the same compound, the IC50 (ACHN) was > 10000 nM.
In the case of `O=C1NC(=NCc2cccs2)S/C1=C\c1ccc2ncccc2c1` [Compound A10], the IC50 (MDA-MB-435) is reported as 6600 nM, the IC50 (NCI/ADR-RES) is reported as 3670 nM and the IC50 (NCI-H322M) is reported as > 10000 nM. For the same compound, the IC50 (SK-MEL-28) was > 10000 nM, the IC50 (RPMI-8226) was 9000 nM and the IC50 (PC-3) was > 10000 nM. For the same compound, the IC50 (HL60) was 1140 nM, the IC50 (UACC-62) was > 10000 nM and the IC50 (MOLT-4) was 5200 nM. The IC50 (SK-MEL-2) was > 10000 nM, the IC50 (UACC257) was > 10000 nM and the IC50 (OVCAR-8) was > 10000 nM. For the same compound, the IC50 (NCI-H460) was > 10000 nM, the IC50 (TK-10) was > 10000 nM and the IC50 (OVCAR-4) was > 10000 nM. The IC50 (SF-295) was > 10000 nM, the IC50 (HCT-15) was 3840 nM and the IC50 (HCC-2998) was > 10000 nM. For the same compound, the IC50 (MALME-3M) was > 10000 nM, the IC50 (NCI-H226) was > 10000 nM and the IC50 (DU-145) was 1380 nM. The IC50 (SR) was 372 nM, the IC50 (SN12C) was > 10000 nM and the IC50 (RXF 393) was > 10000 nM. It also gave an IC50 (ACHN) of 4460 nM.
